Reference: US10618937B2, “Method of treating Alzheimer's disease” (INDUSTRY-ACADEMIC COOPERATION FOUNDATION GYEONGSANG …, priority 2016, dated 2020)

Legend:
[1] = test system: APP-transfected SH-SY5Y cells; experiment: MTT assay, cell viability of APP-transfected SH-SY5Y cells; assay type: cell-based, human; conditions: 0.5, 1, 5, 10 and 20 μM, 4 hours, compared to the untreated APP group
Experimental: The human APPswe/ind gene under the transcriptional control of the SV40 promoter/enhancer linked to the pCAX mammalian expression vector was obtained from addgene; The gene was deposited in the APP reservoir by Dennis Solkoe (plasmid 30145). The plasmid was amplified by DH5alpha strain in LB medium containing 50 μg/ml of ampicillin. The plasmid was purified by using a Qiagen plasmid mini kit (Cat #12143) and digested with EcoRV restriction enzyme and confirmed. The human neuroblastoma cell line SHYSY5Y used in the present in vitro experiments was cultured in DMEM medium containing 10% fetal bovine serum and 1% penicillin-streptomycin antibiotic (stock solutions concentrations of 10,000 U and 10,000 μg/ml, respectively)).
SH-SY5Y cells and HT-22 cells were inoculated into a culture flask containing the medium, and cultured until reaching the confluency of 70% to 75%. The pCAX vector with the APPswe/ind gene was transfected for 48 hours by using Lipofectamine 3000 (Life technologies) according to the manufacturers instructions.
APPswe/ind transfected SH-SY5Y cells were treated with novel peptide for 4 hours, followed by 3-[4, 5-dimethylthiazol-2-yl]-2,5-diphenyl tetrazolium bromide (MTT) analysis and Western blot analysis.
MTT assay was performed to measure the survival rate of cells treated with various concentrations of adiponectin receptor-activating novel peptide (5AA1). The cells were inoculated at 1×10^5 cells/well in a 96-well plate containing 200 μl of Dulbecco's modified Eagle's medium (DMEM). After 70% of cell confluence, SH-SY5Y cells were treated with 0.5 μM, 1 μM, 5 μM, 10 μM, and 20 μM of adiponectin receptor-activating novel peptide, and then cultured for 4 hours. At the end of the treatment, MTT (5 mg/ml in PBS) was added to each well, and the plate was cultured at a temperature of 37° C. for 4 hours. The formazan dissolved in dimethyl sulfoxide (DMSO) was added to the well and the plate was stirred in the agitator for 10 to 20 minutes. Then, the absorbance was measured at a wavelength of 550 nm to 570 nm (L1) and 620 nm to 650 nm (L2) by using a scanning microplate reader.
The L2 absorbance was measured for cell residuals and well imperfections, and the corrected absorbance (Abs.=L1−L2) of each well was calculated from 100× the absorbance of treated well/absorbance of the control well, and was used to measure the cell viability.

APP/PS1 model mice = experiment: Western blot analysis of cortex and hippocampus of APP/PS1 model mice; assay type: in vivo
Experimental: Male C57BL/6J wild type mice and double transgenic B6.Cg-Tg (APPswe, PSENdE9) 85Dbo Mmjax (APP/PS1) AD-model mice were obtained from Jackson Laboratories (Bar Harbor, Me., USA). The brains of the double transfected mice express Swedish mutation-containing chimeric mouse-human amyloid precursor protein (Mo/HuAPP695swe) and mutant human presenilin 1 protein (PS1-dE9). The mice were fed with an unlimited supply of food and water at an animal breeding ground of a university at a temperature of 23° C., at the relative humidity of 60±10% and in the black and light cycle of 12 h/12 h. […] The maintenance and treatment for mice were performed according to the guidelines of the Animal Ethics Committee (IACUC) issued by Department of Biology, Division of Applied Life Science of Gyeongsang National University in Korea. Experiments according to the present disclosure were conducted according to the guidelines approved by the guidelines of the Animal Ethics Committee (IACUC) issued by Department of Biology, Division of Applied Life Science of Gyeongsang National University in Korea (approval ID: 125).
The novel peptide according to the present disclosure was dissolved in bi-deionized distilled water, and administered while being finally included in physiological saline. The novel peptide according to the present disclosure was intraperitoneal injection (IP) administered to APP/PS1 and wild-type (WT) mice in a dose of 5 mg/kg/day at an interval of 2.5 days for 30 days to 45 days. Wild-type mice and APP/PS1 transfected mice were treated with the same volume of physiological saline, and after behavioral analysis, the animal models were sacrificed for further biochemical and immunohistochemical analysis.
Protein concentrations were measured by using a BIORAD protein assay kit (BIORAD LABORATORIES, CA, USA). Equal amounts of protein (15 to 25 μg) were electrophoresed under the same experimental conditions using 4 to 12% BLOT™ minigel and MES SDS electrophoresis buffer (running buffer) 1×(NOVEX, LIFE TECHNOLOGIES, Kiryat Shmona, Israel), and a broad range prestained protein marker (GANGNAM STAIN™, Intron Biotechnology) was used as the control for the molecular size. To reduce nonspecific binding, the membranes used were blocked with 5% (w/v) skim milk and reacted with a primary antibody (a 1:1000 dilution) overnight at 4° C. After an appropriate reaction with a horseradish peroxidase (HRP)-binding secondary antibody, proteins were detected by using an ECL detection reagent (AMERSHAM PHARMECIA BIOTECH, Uppsala, Sweden) according to the manufacturer's instructions. The X-ray film was scanned and the optical density of the band was analyzed using a densitometry using a computer-based Sigma Gel program, version 1.0 (SPSS, Chicago, Ill., USA).
For use as the primary antibody, anti-amyloid β (Aβ), anti-APP, anti-AdipoR1 (Adiponectin receptor 1), anti-phospho-AMPK, anti-SNAP-25 (Synaptosomal-Associated Protein 25), anti-SAP-102, anti-Syanpatophysin, phospho-Tau (Ser 413), anti-p-mTOR, anti-p-ULK1, and anti-β-actin were used.

[2] = hippocampus of APP/PS1 mice, 9 months and 12 months
[3] = hippocampus, 9 months and 12 months
[4] = hippocampus, 9 months and 12 months after treatment

## RGPCG (adiponectin receptor-activating peptide) [5AA1]
[1]
  cell viability: concentration-dependently increased
APP/PS1 model mice; APP/PS1 mice
  expression of p-ULK1 protein: suppression of the expression
  expression of p-mTOR protein: suppression of the expression
APP/PS1 model mice; cortex of APP/PS1 mice
  APP in the cortex: statistically significantly reduced
  amyloid-β oligomer (Aβ oligomer) in the cortex: statistically significantly reduced
APP/PS1 model mice; hippocampus of APP/PS1 mice
  expression level of p-Tau (Ser404): remarkably decreased levels
  expression level of p-Tau (Ser413): remarkably decreased levels
APP/PS1 model mice; [2]
  expression level of AdipoR1: remarkably increased levels
  expression level of SIRT-1: remarkably increased levels
  expression level of pAMPK: remarkably increased levels
APP/PS1 model mice; [3]
  expression level of AAP in the hippocampus: decreased
  expression level of Aβ in the hippocampus: decreased
APP/PS1 model mice; [4]
  expression level of SAP-102: remarkably increased levels
  expression level of SNAP-25: remarkably increased levels
  expression level of Synaptophysin: remarkably increased levels
